This is an account of results in patent US10328128B2, “Treatment of infection by human enterovirus D68” (priority 2014, dated 2019).

One may read the EC50 as the concentration that produces a half-maximal response.

Type in all cases: cell-based, Human enterovirus D68
In experiment [1] the test system is EV-D68 strain USA-MO/18949. Nature of the experiment: CPE inhibition assay repeated in HeLa H1 cells. The note with it: Enterovirus D, EVD68.
Experiment [2] concerns EV-D68 1962 prototype strain (Fermon). Description: CPE inhibition assay in RD cells. The following applies: Enterovirus D, EVD68, 120 h; RD cells, 100 CCID50 virus, 33° C., five days, strain Fermon; read-out: Mean EC50 ± SD.
The subject of experiment [3] is EV-D68 strain USA-IL/18956. Nature of the experiment: CPE inhibition assay repeated in HeLa H1 cells. The note with it: Enterovirus D, EVD68.
Experiment [4] has as its system EV-D68 strain Fermon. Nature of the experiment: CPE inhibition assay repeated in HeLa H1 cells. The note with it: Enterovirus D, EVD68.
The test system of experiment [5] is EV-D68 strain USA-MO/18947. Nature of the experiment: CPE inhibition assay in RD cells. The note with it: Enterovirus D, EVD68, 120 h; RD cells, 100 CCID50 virus, 33° C., five days, strain USA-MO/18947; read-out: Mean EC50 ± SD.
For experiment [6], the system named is EV-D68 Fermon strain. Description: CPE inhibition assay over a range of virus doses. The note with it: Enterovirus D, EVD68; 100-fold virus dose range; strain not given; read-out: EC50 variation over a range of virus doses. The method, then: Antiviral activity was assessed in a homogeneous cell-based assay that measured inhibition of viral cytopathic effect in human rhabdomyosarcoma cells (RD; ATCC CCL-136). The viruses included three representative EV-D68 strains from the 2014 outbreak (USA-MO/18947, USA-MO/18949, USA-IL/18956) (Brown et al. 2014. Seven Strains of Enterovirus D68 Detected in the United States during the 2014 Severe Respiratory Disease Outbreak. Genome Announc 2:e01201-01214), as well as the 1962 prototype strain (Fermon) (Schieble et al. 1967. A probable new human picornavirus associated with respiratory diseases. Am J Epidemiol 85:297-310). For the CPE inhibition assay, half-log10 dilutions of drug compound (10 μM to 0.001 μM) were combined with 100 CCID50 (50% cell culture infectious dose) of virus and added to monolayers of RD cells (5000 cells per well) in 384-well, white, flat-bottom microplates. Plates were incubated at 33° C. and 5% CO2 for five days, and cell viability was assessed using ATPLite® (Perkin Elmer, Waltham, Mass.) by adding 15 μL of cell lysis buffer and then 15 μL of substrate solution, following the manufacturer's recommendations.
In both studies, the methods were somewhat different from our approach. […] For the other compounds tested, similar EC50 values were observed across this same dose range. […]

Experiment [7] relates to four EV-D68 strains. Description: microbe, parasite or virus in culture. The following applies: RD cells.
Experiment [8] concerns four EV-D68 strains. Nature of the experiment: CPE inhibition assay in HeLa H1 cells, text summaries over the strains. The following applies: Enterovirus D, EVD68, all four strains, read-out: EC50 values, range over all four strains in HeLa H1 cells.
Experiment [9] concerns EV-D68 strain USA-MO/18949. Description: CPE inhibition assay in RD cells. The following applies: Enterovirus D, EVD68, 120 h; RD cells, 100 CCID50 virus, 33° C., five days, strain USA-MO/18949; read-out: Mean EC50 ± SD.
In experiment [10] the test system is EV-D68 strain USA-MO/18947. Description: CPE inhibition assay repeated in HeLa H1 cells. The note with it: Enterovirus D, EVD68.
Experiment [11] concerns EV-D68 strain USA-IL/18956. Nature of the experiment: CPE inhibition assay in RD cells. The following applies: Enterovirus D, EVD68, 120 h; RD cells, 100 CCID50 virus, 33° C., five days, strain USA-IL/18956; read-out: Mean EC50 ± SD.

Consider `Cc1cc(CCCOc2c(C)cc(-c3noc(C(F)(F)F)n3)cc2C)on1` [Pleconaril, pleconaril], for which the EC50 in experiment [1] was 358 nM; in experiment [2], 380 ± 10 nM; in experiment [3], 321 nM; in experiment [4] it was 360 nM; in [5] it was 4440 ± 550 nM; in experiment [6] it was 300 to 500 nM. Besides, the EC50 in experiment [8] is 130 to 360 nM; in experiment [9] it was 6090 ± 260 nM; in experiment [10], 131 nM; in [11] it was 6110 ± 1050 nM. In [7] (2014 strains), the “concentrations at which activity against the 2014 strains was detected” value is given as “greater than 4 μM”. Moreover, the “EC50 against the 2014 strains relative to the Fermon strain” value in experiment [7] (higher against 2014 strains) is on record as “about 10 fold”.
